Usually IC50 stands for the concentration that gives 50% inhibition.

Assay [1] deals with T1, Rat Brain Microsomes (FAAH) (Rattus norvegicus, UniProt P97612).
T1 sequence (P97612 1-579): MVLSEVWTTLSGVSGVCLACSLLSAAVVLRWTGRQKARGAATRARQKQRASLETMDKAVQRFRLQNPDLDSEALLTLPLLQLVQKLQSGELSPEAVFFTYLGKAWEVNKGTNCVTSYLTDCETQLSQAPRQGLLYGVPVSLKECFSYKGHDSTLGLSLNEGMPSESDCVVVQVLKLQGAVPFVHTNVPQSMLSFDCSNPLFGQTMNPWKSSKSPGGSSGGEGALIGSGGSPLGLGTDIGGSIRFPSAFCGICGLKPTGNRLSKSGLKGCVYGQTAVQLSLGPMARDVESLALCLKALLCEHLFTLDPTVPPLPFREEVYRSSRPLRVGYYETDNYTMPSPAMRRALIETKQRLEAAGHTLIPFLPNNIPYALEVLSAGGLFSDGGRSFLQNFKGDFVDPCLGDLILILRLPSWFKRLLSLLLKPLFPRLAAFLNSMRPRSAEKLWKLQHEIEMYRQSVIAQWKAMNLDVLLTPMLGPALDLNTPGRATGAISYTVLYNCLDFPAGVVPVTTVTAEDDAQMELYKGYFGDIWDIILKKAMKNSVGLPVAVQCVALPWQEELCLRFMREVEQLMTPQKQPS
The experiment in a line: FAAH inhibition in brain microsomes, OMP hydrolysis.

For assay [2], the system named is PPARγ, C/EBPα and FABP4 mRNA expression. The experiment in a line: RT-PCR of adipocyte marker genes in 3T3-L1 cells. The format is cell-based, Murine.
The test system of assay [3] is 3T3-L1 cells. Kind of assay: 3T3-L1 adipocyte differentiation, Oil Red O staining of lipid accumulation. The format is cell-based, Murine.
The target of assay [4] is T2, Human Recombinant hCE2 (carboxylesterase 2) (Homo sapiens, UniProt O00748).
T2 sequence (O00748 27-559): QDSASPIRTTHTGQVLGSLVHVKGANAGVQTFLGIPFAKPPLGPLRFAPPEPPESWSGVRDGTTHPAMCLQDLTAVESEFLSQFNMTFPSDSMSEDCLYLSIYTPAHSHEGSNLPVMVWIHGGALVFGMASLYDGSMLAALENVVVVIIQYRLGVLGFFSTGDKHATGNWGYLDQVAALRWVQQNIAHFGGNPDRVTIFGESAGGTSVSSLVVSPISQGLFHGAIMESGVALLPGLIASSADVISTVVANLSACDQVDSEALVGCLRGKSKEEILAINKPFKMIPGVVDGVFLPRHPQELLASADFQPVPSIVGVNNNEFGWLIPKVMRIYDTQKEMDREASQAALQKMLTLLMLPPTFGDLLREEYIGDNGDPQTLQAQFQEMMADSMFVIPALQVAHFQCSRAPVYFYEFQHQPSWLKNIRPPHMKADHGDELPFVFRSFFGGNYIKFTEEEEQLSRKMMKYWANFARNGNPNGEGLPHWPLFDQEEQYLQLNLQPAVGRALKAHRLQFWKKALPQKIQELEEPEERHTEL
Kind of assay: Esterase inhibition, fluorimetric assay with CMNA substrate. The format is biochemical.

Assay [5] deals with T3, Human Recombinant AADAC (arylacetamide deacetylase) (Homo sapiens, UniProt P22760).
T3 sequence (P22760 1-399): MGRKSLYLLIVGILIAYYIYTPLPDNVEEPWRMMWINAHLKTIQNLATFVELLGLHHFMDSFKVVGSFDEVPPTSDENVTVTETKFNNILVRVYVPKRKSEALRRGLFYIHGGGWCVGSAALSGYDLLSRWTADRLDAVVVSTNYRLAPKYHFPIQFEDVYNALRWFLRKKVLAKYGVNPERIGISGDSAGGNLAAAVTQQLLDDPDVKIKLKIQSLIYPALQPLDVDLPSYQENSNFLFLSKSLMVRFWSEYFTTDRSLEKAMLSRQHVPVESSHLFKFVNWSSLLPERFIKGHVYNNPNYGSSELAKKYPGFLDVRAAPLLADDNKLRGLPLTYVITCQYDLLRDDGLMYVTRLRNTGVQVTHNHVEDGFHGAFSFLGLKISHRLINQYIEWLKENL
Described as above. The format is biochemical.

In assay [6] the target is T4, Human Recombinant hCE1 (carboxylesterase 1) (Homo sapiens, UniProt P23141).
T4 sequence (P23141 18-567): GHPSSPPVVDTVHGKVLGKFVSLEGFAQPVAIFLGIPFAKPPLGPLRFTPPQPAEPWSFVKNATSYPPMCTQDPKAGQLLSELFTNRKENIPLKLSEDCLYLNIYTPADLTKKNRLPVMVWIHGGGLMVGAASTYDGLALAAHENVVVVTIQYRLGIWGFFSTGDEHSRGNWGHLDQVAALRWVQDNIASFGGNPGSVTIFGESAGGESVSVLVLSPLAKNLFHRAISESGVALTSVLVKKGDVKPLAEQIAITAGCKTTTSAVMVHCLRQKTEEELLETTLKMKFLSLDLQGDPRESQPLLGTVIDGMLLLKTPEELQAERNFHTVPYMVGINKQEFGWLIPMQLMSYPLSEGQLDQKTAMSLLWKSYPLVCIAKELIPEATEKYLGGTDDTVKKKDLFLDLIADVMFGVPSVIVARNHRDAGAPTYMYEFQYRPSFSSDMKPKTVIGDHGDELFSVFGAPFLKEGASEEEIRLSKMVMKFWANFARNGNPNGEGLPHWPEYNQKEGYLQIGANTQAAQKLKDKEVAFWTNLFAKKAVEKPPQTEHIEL
Described as above. The format is biochemical.

Assay [7] addresses T5, Mouse Brain Microsomes (FAAH) (Mus musculus, UniProt O08914).
T5 sequence (O08914 1-579): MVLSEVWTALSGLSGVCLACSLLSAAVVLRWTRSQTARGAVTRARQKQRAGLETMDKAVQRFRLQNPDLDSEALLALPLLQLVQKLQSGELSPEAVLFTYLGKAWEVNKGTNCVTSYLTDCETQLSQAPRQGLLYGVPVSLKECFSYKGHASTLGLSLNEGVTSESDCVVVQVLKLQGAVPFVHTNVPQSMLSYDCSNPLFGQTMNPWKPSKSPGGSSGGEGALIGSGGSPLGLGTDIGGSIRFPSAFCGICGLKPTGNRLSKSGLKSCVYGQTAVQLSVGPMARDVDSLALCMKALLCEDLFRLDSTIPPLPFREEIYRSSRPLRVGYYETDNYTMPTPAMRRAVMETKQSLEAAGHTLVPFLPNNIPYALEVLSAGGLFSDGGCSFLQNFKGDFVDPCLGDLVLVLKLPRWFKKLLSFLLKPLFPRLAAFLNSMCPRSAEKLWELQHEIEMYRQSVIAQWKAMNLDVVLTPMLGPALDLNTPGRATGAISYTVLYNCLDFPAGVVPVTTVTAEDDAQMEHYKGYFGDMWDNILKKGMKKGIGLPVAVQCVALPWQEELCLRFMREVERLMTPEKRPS
Kind of assay: FAAH inhibition in brain microsomes, OMP hydrolysis.

Where only a bound is given, the exact number is not on record here.

On to `O=C(OCc1ccccc1)c1ccc(O)cc1` [Benzylparaben, benzylparaben], for which the IC50 in assay [1] was 0.23 µM; in assay [4], more than 10 µM; in assay [5] it was more than 10 µM; in assay [6], more than 10 µM; in assay [7], 0.21 µM. Further, the “effect on AEA-induced adipocyte marker expression” value in assay [2] (3T3-L1, 10 μM compound, co-treatment with AEA 10 μM, 7 days) is recorded as “not significantly changed”. The “PPARγ, C/EBPα and FABP4 mRNA expression” value in assay [2] (3T3-L1, 1, 10, 50 μM for 7 days, n = 3) is “enhanced PPARγ, C/EBPα and FABP4 mRNA expression”. Further, the “effect on AEA-mediated adipocyte differentiation (Oil Red O)” value in assay [3] (10 μM compound, co-treatment with AEA 10 μM, 7 days) was “do not synergize to increase adipocyte differentiation”. Besides, the “adipocyte differentiation / lipid accumulation (Oil Red O staining)” value in assay [3] (1, 10, 50 μM for 7 days) is on record as “dose-dependently enhanced 3T3-L1 adipocyte differentiation”.

Source of the values: publication PMC5096949 (Toxicology letters, 2016).
